In ChEMBL document CHEMBL2331514, “Structure-based design and synthesis of novel pseudosaccharine derivatives as antiproliferative agents and kinase inhibitors” (Eur J Med Chem, 2013):

Columns and labels:
CCRF-CEM = test: Cytotoxicity against human CCRF-CEM cells assessed as growth inhibition at 10 uM after 48 hrs by SRB assay; format: functional; conditions: read-out: GI
OVCAR-3 = test: Cytotoxicity against human OVCAR3 cells assessed as growth inhibition at 10 uM after 48 hrs by SRB assay; format: functional; conditions: OVCAR-3, 48 h, read-out: GI
SK-OV-3 = test: Cytotoxicity against human SKOV3 cells assessed as growth inhibition at 10 uM after 48 hrs by SRB assay; format: functional; conditions: SK-OV-3, 48 h, read-out: GI
SF-539 = test: Cytotoxicity against human SF539 cells assessed as growth inhibition at 10 uM after 48 hrs by SRB assay; format: functional; conditions: SF-539, 48 h, read-out: GI
RPMI-8226 = test: Cytotoxicity against human RPMI8226 cells after 48 hrs by SRB assay; format: functional; conditions: RPMI-8226, 48 h
MCF7 [1] = test: Cell cycle arrest in human MCF7 cells assessed as accumulation at G2/M phase at 10 uM after 24 hrs by propidium iodide staining-based FACS analysis (reference value: 4.80 %); format: functional
[2] = target: Serine/threonine-protein kinase B-raf (Homo sapiens) (UniProt P15056); test: Inhibition of B-Raf kinase (unknown origin) using [33P]-ATP at 10 uM after 20 to 40 mins by scintillation counting analysis
Serine/threonine-protein kinase B-raf (Homo sapiens), sequence (P15056 whole entry): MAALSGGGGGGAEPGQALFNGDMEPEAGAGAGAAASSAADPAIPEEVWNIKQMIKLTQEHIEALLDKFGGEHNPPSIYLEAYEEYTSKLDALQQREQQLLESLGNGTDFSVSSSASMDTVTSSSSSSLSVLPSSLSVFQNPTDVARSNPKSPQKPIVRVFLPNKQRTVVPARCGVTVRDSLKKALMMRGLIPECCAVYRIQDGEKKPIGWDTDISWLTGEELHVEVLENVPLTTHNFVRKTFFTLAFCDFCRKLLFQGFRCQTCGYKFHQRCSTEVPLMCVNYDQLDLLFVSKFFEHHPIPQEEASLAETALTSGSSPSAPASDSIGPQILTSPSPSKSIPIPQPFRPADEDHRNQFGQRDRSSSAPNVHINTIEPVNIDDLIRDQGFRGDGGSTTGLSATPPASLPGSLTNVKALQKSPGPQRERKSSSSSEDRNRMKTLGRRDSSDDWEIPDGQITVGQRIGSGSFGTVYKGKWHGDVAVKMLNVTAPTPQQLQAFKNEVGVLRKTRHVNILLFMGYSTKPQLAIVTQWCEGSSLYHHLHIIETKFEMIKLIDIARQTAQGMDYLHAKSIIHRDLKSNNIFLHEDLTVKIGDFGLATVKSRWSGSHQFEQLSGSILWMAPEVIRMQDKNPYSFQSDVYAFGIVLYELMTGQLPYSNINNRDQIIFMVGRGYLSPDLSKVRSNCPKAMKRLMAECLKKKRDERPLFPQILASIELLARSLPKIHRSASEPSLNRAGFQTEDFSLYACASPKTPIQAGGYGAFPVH

[3] = Partition coefficient, log P of the compound; format: physicochemical; conditions: octanol/water
CAKI-1 = test: Cytotoxicity against human Caki1 cells assessed as growth inhibition at 10 uM after 48 hrs by SRB assay; format: functional; conditions: CAKI-1, 48 h, read-out: GI
PC-3 = test: Cytotoxicity against human PC3 cells after 48 hrs by SRB assay; format: functional; conditions: PC-3, 48 h
MCF7 [4] = test: Cell cycle arrest in human MCF7 cells assessed as accumulation at S phase at 10 uM after 24 hrs by propidium iodide staining-based FACS analysis (reference value: 36.60 %); format: functional
NCI-H226 = test: Cytotoxicity against human NCI-H226 cells assessed as growth inhibition at 10 uM after 48 hrs by SRB assay; format: functional; conditions: NCI-H226, 48 h, read-out: GI
MDA-MB-468 [5] = test: Cytotoxicity against human MDA-MB-468 cells after 48 hrs by SRB assay; format: functional; conditions: MDA-MB-468, 48 h
HT-29 = test: Cytotoxicity against human HT-29 cells assessed as growth inhibition at 10 uM after 48 hrs by SRB assay; format: functional; conditions: HT-29, 48 h, read-out: GI
786-0 = test: Cytotoxicity against human 786-0 cells assessed as growth inhibition at 10 uM after 48 hrs by SRB assay; format: functional; conditions: 786-0, 48 h, read-out: GI
IGROV-1 = test: Cytotoxicity against human IGROV1 cells assessed as growth inhibition at 10 uM after 48 hrs by SRB assay; format: functional; conditions: IGROV-1, 48 h, read-out: GI
[6] = target: Tyrosine-protein kinase ZAP-70 (Homo sapiens) (UniProt P43403); test: Inhibition of ZAP-70 kinase (unknown origin) using [33P]-ATP at 10 uM after 20 to 40 mins by scintillation counting analysis
Tyrosine-protein kinase ZAP-70 (Homo sapiens), sequence (P43403 whole entry): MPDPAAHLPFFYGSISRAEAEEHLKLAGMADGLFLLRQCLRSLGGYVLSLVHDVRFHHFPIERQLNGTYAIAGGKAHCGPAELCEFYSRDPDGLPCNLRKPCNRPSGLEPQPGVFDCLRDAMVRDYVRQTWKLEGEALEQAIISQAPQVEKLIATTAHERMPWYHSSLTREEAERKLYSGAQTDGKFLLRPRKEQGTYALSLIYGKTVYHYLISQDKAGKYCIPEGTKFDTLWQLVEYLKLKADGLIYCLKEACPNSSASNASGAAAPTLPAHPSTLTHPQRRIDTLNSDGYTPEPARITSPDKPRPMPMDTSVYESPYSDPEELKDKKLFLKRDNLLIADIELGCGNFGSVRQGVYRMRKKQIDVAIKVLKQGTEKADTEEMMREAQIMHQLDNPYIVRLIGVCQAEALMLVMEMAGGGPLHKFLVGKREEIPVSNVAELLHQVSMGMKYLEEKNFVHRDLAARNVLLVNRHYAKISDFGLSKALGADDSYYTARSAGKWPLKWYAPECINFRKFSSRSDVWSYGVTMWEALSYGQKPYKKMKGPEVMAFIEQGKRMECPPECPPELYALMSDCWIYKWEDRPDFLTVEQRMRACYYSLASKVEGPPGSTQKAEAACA

NCI-H23 = test: Cytotoxicity against human NCI-H23 cells after 48 hrs by SRB assay; format: functional; conditions: NCI-H23, 48 h
OVCAR-5 = test: Cytotoxicity against human OVCAR5 cells assessed as growth inhibition at 10 uM after 48 hrs by SRB assay; format: functional; conditions: OVCAR-5, 48 h, read-out: GI
BT-549 [7] = test: Cytotoxicity against human BT549 cells after 48 hrs by SRB assay; format: functional; conditions: BT-549, 48 h, pooled result: one value given for 51 cell lines, strains, targets or settings
MOLT-4 = test: Cytotoxicity against human MOLT4 cells assessed as growth inhibition at 10 uM after 48 hrs by SRB assay; format: functional; conditions: MOLT-4, 48 h, read-out: GI
MDA-MB-468 [8] = test: Cytotoxicity against human MDA-MB-468 cells assessed as growth inhibition at 10 uM after 48 hrs by SRB assay; format: functional; conditions: MDA-MB-468, 48 h, read-out: GI
[9] = target: Proto-oncogene tyrosine-protein kinase Src (Homo sapiens) (UniProt P12931); test: Inhibition of Src kinase (unknown origin) using [33P]-ATP at 10 uM after 20 to 40 mins by scintillation counting analysis
Proto-oncogene tyrosine-protein kinase Src (Homo sapiens), sequence (P12931 2-536 limits assumed): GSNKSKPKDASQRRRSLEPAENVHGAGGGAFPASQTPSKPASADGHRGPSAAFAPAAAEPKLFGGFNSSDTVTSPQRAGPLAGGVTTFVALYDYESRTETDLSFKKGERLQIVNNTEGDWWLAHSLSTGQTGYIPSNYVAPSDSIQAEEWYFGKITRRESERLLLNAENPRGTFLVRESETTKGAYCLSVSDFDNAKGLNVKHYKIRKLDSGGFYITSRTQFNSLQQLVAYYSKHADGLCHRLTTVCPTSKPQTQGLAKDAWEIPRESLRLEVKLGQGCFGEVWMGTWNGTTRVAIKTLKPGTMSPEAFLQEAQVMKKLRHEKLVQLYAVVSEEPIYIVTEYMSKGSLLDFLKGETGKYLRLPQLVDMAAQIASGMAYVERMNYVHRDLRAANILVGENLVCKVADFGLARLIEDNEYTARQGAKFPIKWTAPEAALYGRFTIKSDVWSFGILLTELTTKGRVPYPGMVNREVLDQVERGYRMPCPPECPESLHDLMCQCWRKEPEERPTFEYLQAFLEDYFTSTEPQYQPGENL

T47D = test: Cytotoxicity against human T47D cells after 48 hrs by SRB assay; format: functional
MCF7 [10] = test: Cell cycle arrest in human MCF7 cells assessed as accumulation at G1 phase at 10 uM after 24 hrs by propidium iodide staining-based FACS analysis (reference value: 58.50 %); format: functional
HCC 2998 = test: Cytotoxicity against human HCC2998 cells assessed as growth inhibition at 10 uM after 48 hrs by SRB assay; format: functional; conditions: HCC 2998, 48 h, read-out: GI
OVCAR-8 = test: Cytotoxicity against human OVCAR8 cells assessed as growth inhibition at 10 uM after 48 hrs by SRB assay; format: functional; conditions: OVCAR-8, 48 h, read-out: GI
A549 = test: Cytotoxicity against human A549/ATCC cells assessed as growth inhibition at 10 uM after 48 hrs by SRB assay; format: functional; conditions: A549, 48 h, read-out: GI
BT-549 [11] = test: Cytotoxicity against human BT549 cells assessed as growth inhibition at 10 uM after 48 hrs by SRB assay; format: functional; conditions: BT-549, 48 h, read-out: GI
MCF7 [12] = test: Cytotoxicity against human MCF7 cells after 48 hrs by SRB assay; format: functional; conditions: MCF7, 48 h
MCF7 [13] = test: Cytotoxicity against human MCF7 cells assessed as growth inhibition at 10 uM after 48 hrs by SRB assay; format: functional; conditions: MCF7, 48 h, read-out: GI
RXF 393 = test: Cytotoxicity against human RXF393 cells assessed as growth inhibition at 10 uM after 48 hrs by SRB assay; format: functional; conditions: RXF 393, 48 h, read-out: GI
SF-295 = test: Cytotoxicity against human SF295 cells after 48 hrs by SRB assay; format: functional; conditions: SF-295, 48 h
UO-31 = test: Cytotoxicity against human UO31 cells assessed as growth inhibition at 10 uM after 48 hrs by SRB assay; format: functional; conditions: UO-31, 48 h, read-out: GI
MCF7 [14] = test: Cell cycle arrest in human MCF7 cells assessed as accumulation at G0 phase at 10 uM after 24 hrs by propidium iodide staining-based FACS analysis (reference value: 1.30 %); format: functional
[15] = Cytotoxicity against human EKVX cells assessed as growth inhibition at 10 uM after 48 hrs by SRB assay; format: functional; conditions: read-out: GI
[16] = read-out: LC50 (the source's name)

Compound `O=C(Nc1ccc(Cl)cc1)Nc1ccc2c(c1)C(Nc1ccc(Cl)cc1Cl)=NS2(=O)=O` has an inhibition of growth at 10 µM (CCRF-CEM) of 82%, an inhibition of growth at 10 µM (OVCAR-3) of 98% and an inhibition of growth at 10 µM (SK-OV-3) of 15%. The inhibition of growth at 10 µM (SF-539) was 42%, the GI50 (RPMI-8226) was 2.19 µM and the TGI (RPMI-8226) was 15.5 µM. For the same compound, the CC50 (RPMI-8226; [16]) was greater than 100 µM, the Activity (MCF7 [1]) was 6.4% and the inhibition [2] was -8%. The logP [3] was 4.24, the inhibition of growth at 10 µM (CAKI-1) was 83% and the GI50 (PC-3) was 2.82 µM. It also gave a TGI (PC-3) greater than 100 µM, a CC50 (PC-3; [16]) greater than 100 µM and an Activity (MCF7 [4]) of 15.2%. It also gave an inhibition of growth at 10 µM (NCI-H226) of 63%, a GI50 (MDA-MB-468 [5]) of 2.75 µM and a TGI (MDA-MB-468 [5]) greater than 100 µM. For the same compound, the CC50 (MDA-MB-468 [5]; [16]) was greater than 100 µM, the inhibition of growth at 10 µM (HT-29) was 57% and the inhibition of growth at 10 µM (786-0) was 73%. The inhibition of growth at 10 µM (IGROV-1) was 54%, the inhibition [6] was 13% and the GI50 (NCI-H23) was 2.69 µM. The TGI (NCI-H23) was 12.3 µM, the CC50 (NCI-H23; [16]) was greater than 100 µM and the inhibition of growth at 10 µM (OVCAR-5) was 40%. The GI50 (BT-549 [7]) was 5.7 µM, the inhibition of growth at 10 µM (MOLT-4) was 73% and the inhibition of growth at 10 µM (MDA-MB-468 [8]) was 74%. For the same compound, the inhibition [9] was 58%, the GI50 (T47D) was 2.63 µM and the TGI (T47D) was greater than 100 µM. The CC50 (T47D; [16]) was greater than 100 µM, the Activity (MCF7 [10]) was 78.3% and the inhibition of growth at 10 µM (HCC 2998) was 72%. It also gave an inhibition of growth at 10 µM (OVCAR-8) of 65%, an inhibition of growth at 10 µM (A549) of 69% and an inhibition of growth at 10 µM (BT-549 [11]) of 49%. For the same compound, the GI50 (MCF7 [12]) was 3.6 µM, the inhibition of growth at 10 µM (MCF7 [13]) was 79% and the inhibition of growth at 10 µM (RXF 393) was 15%. For the same compound, the GI50 (SF-295) was 2.88 µM, the TGI (SF-295) was greater than 100 µM and the CC50 (SF-295; [16]) was greater than 100 µM. For the same compound, the inhibition of growth at 10 µM (UO-31) was 70%, the Activity (MCF7 [14]) was 1.4% and the inhibition of growth at 10 µM [15] was 71%.
